Test [1] concerns Sertoli cells. As to the kind of experiment: inhibin-B secretion by Sertoli cells (inhibin-B dimer assay, Serotec). The format is cell-based, Wistar rats.
Protocol: The in-vitro stimulating effect on inhibin-B generation was measured using inhibin-B dimer assays by Serotec, Oxford, UK. […] The difference between the released inhibin-B quantity with and without the test substance expresses the efficacy of the respective test substance.
The substances were tested for their stimulating effect on inhibin-B secretion in an in-vitro model using Sertoli cells originating from Wistar rats and cultivated for up to 4 days.
Wistar rats that were 18 days old were killed using CO2; their testicles were collected and mechanically chopped up using a surgical knife. The resulting cell pulp was enzymatically disintegrated with collagenase II, hyaluronidase, and DNase using the following method: The cell pulp was digested for 15 minutes at 37° C. in 20 ml of Dulbecco's Modified Essential Medium (DMEM) containing 20 mg of collagenase II; subsequently, it was sedimented for 7 minutes at room temperature. The supernatant was discarded. The remaining pellet was resuspended in DMEM, then sedimented again for 7 minutes. The next steps were a second decomposition for 30 minutes at 37° C. in 20 ml of DMEM containing 40 mg of collagenase II, 40 mg of hyaluronidase, and 0.1 mg of DNase, and a centrifugation step at 500 rpm. After washing in DMEM without additives and another centrifugation step, the pellet was a third time enzymatically disintegrated for 30 minutes at 37° C. in 20 ml of DMEM containing 40 mg of collagenase II, 40 mg of hyaluronidase and 0.1 mg of DNase, then centrifuged at 1,000 rpm. The pellet was then resuspended, washed once in DMEM without additives, and finally sublimated with 100 U/ml of penicillin, 100 μg/ml of streptomycin, 5 μg/ml of human transferrin, 2 μg/ml of insulin, 50 ng/ml of vitamin A (all from Sigma Co.), 200 ng/ml of vitamin E (Merck Co.), and 3 mg/ml of cytosine arabinoside (Sigma Co.) (DMEM-Z) and sowed in 24-well microtiter plates. After 48 hours, the cultivated cells were given hypotonic treatment using 20 mM of Tris-HCl (pH 7.4) to remove residual gametes, then the medium was changed into DMEM-Z.
1 ml of biological sample containing 10^6 Sertoli cells in 990 ml of DMEM-Z and test substances at a concentration range from 0.1 nM to 1 μM, each dissolved in 10 μl of absolute ethanol (1% w/v of the total batch) was incubated for 48 hours at 34° C. and 5% CO2. The culture supernatant was then decanted from the cells, frozen at −20° C. and kept until the inhibin-B level was determined.
0.1 ml of culture supernatant was mixed with 0.05 ml of SDS of the inhibin-B assay (Serotec, Oxford, UK) in 1.8 ml Eppendorf reaction vessels and heated for 3 minutes to 100° C. After the batch had cooled down, 0.1 ml of assay diluent and 0.05 ml of a 6% H2O2 solution were added, intermixed, then incubated for 30 minutes at room temperature.
80 ml of the above reaction mixture and 80 ml of the 7 inhibin-B standards for creating a calibration curve contained in the assay were pipetted into the wells of the microtiter plate contained in the assay and allowed to incubate at room temperature overnight. Finally the wells were washed 3 times with an inhibin washing buffer.
The content of the alkaline phosphatase-conjugated antibody against human inhibin-B contained in the assay was taken up in 6 ml of assay diluent, and 0.05 ml of this solution were pipetted into the wells and incubated for 3 hours at room temperature. […]
In test [2] the test system is epididymal and prostatic 5α-reductase. The following applies: Monsalve 1977; Starka 1989; cited from earlier work.
The test system of test [3] is FSH levels in the plasma. To be noted: depending on its dose; Bicikova 1993; cited from earlier work.

For the compound `C[C@]12CC[C@H]3[C@@H](CCC4=CC(=O)CC[C@@]43C)[C@@H]1CC[C@@H]2O` [testosterone], the “inhibin-B secretion after adding steroids from natural sources” value (“inhibin-B secretion” below) in test [1] (Sertoli cell culture) is reported as “not influenced”.

Consider `C[C@]12CC[C@H]3[C@@H](CCC4=CC(=O)CC[C@@]43C)[C@@H]1CC[C@H]2O` [17α-hydroxy-4-androstene-3-one], for which the “inhibin-B levels expressed from the culture supernatant as compared to the control tests” value in test [1] (Sertoli cell culture, incubation time of 44 and 52 hours, FIG. 2 (EpiT 1 uM)) is on record as “significantly increased”. Moreover, in test [1] (epitestosterone concentrations in the range from 10 nM to 1 pM), the “increase of inhibin-B levels: concentration range of particularly striking effect” value is listed as “particularly striking”. Further, the “inhibition of epididymal and prostatic 5α-reductase” value in test [2] is given as “inhibits”. Further, in test [3], the “effect on FSH levels in the plasma” value is “either an inhibiting or an increasing effect”.

Turning to `CC(=O)[C@H]1CC[C@H]2[C@@H]3CCC4=CC(=O)CC[C@]4(C)[C@H]3CC[C@]12C` [progesterone], in test [1] (Sertoli cell culture), the “inhibin-B secretion” value is “not influenced”.

Turning to `C[C@]12CCC(=O)C[C@@H]1CC[C@@H]1[C@@H]2CC[C@]2(C)[C@@H](O)CC[C@@H]12` [dihydrotestosterone], the “inhibin-B secretion” value in test [1] (Sertoli cell culture) is recorded as “not influenced”.

These data come from patent publication US6432939B1, “17a-hydroxy-4-androstene-3-one and derivatives thereof” (priority 1999, dated 2002).
